pIC50: −log10 of the molar value. The source made the active and inactive calls. How the calls were made is not given here.

For the assay, the system named is 697B B-cell line, NF-kB luciferase reporter luminescence. Kind of assay: NF-kB reporter inhibition in B cells, dose response, selectivity assay for T-cell antigen receptor NF-kB inhibitors, 697B cells, luminescence (AID 489033).
A word on the IC50: it is the concentration that inhibits the measured activity by half. As for `COc1ccc(OC)c(-c2nnc3n2N=C(c2ccc(OC)c(OC)c2)CS3)c1`, the IC50 is 55.2 µM (inactive).

In the case of `Cc1ccccc1NS(=O)(=O)c1ccc(N2CCCC2=O)cc1`, the IC50 is > 80 µM (inactive).

What is called pIC50 is the IC50 on a negative log10 scale, so that one unit is a factor of ten. Take `CCS(=O)(=O)c1ncc(Cl)c(C(=O)Nc2ccc(S(=O)(=O)N(C)c3ccccc3)cc2)n1`: the pIC50 was 5.85.

On to `Cn1nc(-c2ccccn2)nc2c(=O)n(C)c(=O)nc1-2`, for which the pIC50 is 5.39.

For `CCSc1nc2ccccc2n1C(=O)/C=C\c1ccc(OC)c(OC)c1`, the pIC50 was 5.33.

Regarding `Cc1ccc(S(=O)(=O)Nc2cccc(-c3ccc4nncn4n3)c2)cc1`, the IC50 was > 80 µM (inactive).

`COc1ccc(C(=O)N(C)Cc2cnn(Cc3ccccc3)c2)cc1S(=O)(=O)N1CCOCC1`: the IC50 was > 80 µM (inactive).

Turning to `COc1cccc(C2CC(=O)Nc3cc4c(cc32)CCC4)c1` (stereo not given), the IC50 is > 80 µM (inactive).

Regarding `CCCCc1ccc(NC(=O)C(=O)NCCN2CCN(Cc3ccc([N+](=O)[O-])cc3)CC2)cc1`, the IC50 is > 80 µM (inactive).

As to `Cc1c(C(=O)OCC(C)C)[nH]c2c1C(=O)CC(c1cccs1)C2` (stereo not given), the IC50 is > 80 µM (inactive).

For `C=C1C(O)[C@@H]2O[C@]3(CC[C@H](/C=C/C(C)[C@@H]4CC(C)=CC5(O[C@H](C[C@@](C)(O)CO)CCC5O)O4)O3)CC[C@H]2O[C@@H]1C(O)CC(C)[C@H]1OC2(CCCCO2)CCC1C` (stereo not given in full), the pIC50 was 5.50.

On to `O=C(COc1ccc(C(=O)c2ccccc2)cc1)NCc1ccc(F)cc1`, for which the IC50 was > 80 µM (inactive).

With `CCCCCCCOc1ccc(OC(=O)c2cccnc2)cc1`, the IC50 is > 80 µM (inactive).

In the case of `Cc1ccc(Nc2nc(-c3c(C)nc4ccccn34)cs2)cc1`, the IC50 is > 80 µM (inactive).

Consider `COc1cc(C(=O)Nc2ccc3c(c2)ncn3C)cc(OC)c1OC`, for which the IC50 was > 80 µM (inactive).

With `COc1ccc(Cn2c(SCc3ccc(C)cc3)nc3cc(OC)c(OC)cc3c2=N)cc1Cl`, the pIC50 is 5.32.

For `Cc1ccc(C(=O)Nc2cccc(C(=O)O)c2)cc1`, the pIC50 is 5.77.

Consider `COc1ccc(C)cc1NS(=O)(=O)c1ccc(-c2cnc(C3CC3)o2)cc1`, for which the IC50 was > 80 µM (inactive).

`CC1CCN(c2c(NCc3ccc(C(=O)N4CCc5ccccc54)cc3)c(=O)c2=O)CC1`: the IC50 is > 80 µM (inactive).

Take `CC1CC(C)CN(S(=O)(=O)c2ccc(NC(=O)c3ccc(=O)[nH]c3)cc2)C1` (stereo not given): the IC50 is > 80 µM (inactive).

As for `COc1cccc(/C=N/Nc2ccc(C(=O)O)cc2)c1O`, the pIC50 was 6.08.

As for `CC1=C(C(=O)OCc2ccc3c(c2)OCO3)C(c2ccc(Cl)cc2)NC(=O)N1` (stereo not given), the pIC50 was 6.34.

With `CC1(C)C[C@H]2C=C(C=O)[C@]3(C=O)C[C@]3(C)[C@H]2C1`, the pIC50 was 5.10.

As for `COC(=O)C[C@]1(C(=O)OC)CN(C#N)N(c2ccc(Cl)cc2)C12c1ccccc1-c1ccccc12`, the pIC50 is 5.35.

For `Cc1ccc2[nH]c3c(c2c1)CCCC3NC(=O)CCl` (stereo not given), the pIC50 was 5.78.

Turning to `COc1ccc(CNS(=O)(=O)c2cc(-c3cc(C)no3)ccc2C(C)C)cc1`, the IC50 was > 80 µM (inactive).

In the case of `COc1ccc(C(=O)NNC(=O)c2ccccn2)cc1`, the pIC50 is 5.28.

Turning to `Cc1ccc2nc(-c3ccc4c(c3)OCCO4)cn2c1`, the pIC50 was 6.33.

Turning to `CN=c1scc(-c2cccs2)n1/N=C/c1ccccc1O`, the pIC50 was 5.88.

Turning to `COC(=O)C1=C(CN2CCCc3ccccc32)NC(=O)NC1c1ccc(F)cc1` (stereo not given), the pIC50 was 5.46.

Regarding `COc1cccc2sc(Nc3nnc(-c4ccccc4Cl)o3)nc12`, the pIC50 was 5.44.

On to `CCc1cc2c(=O)nc3n(c2s1)Cc1ccccc1/C3=C(/O)c1cccc([N+](=O)[O-])c1`, for which the IC50 was > 80 µM (inactive).

Consider `C=CCNC(=S)N/N=C(\C)c1ccccn1`, for which the pIC50 is 6.21.

`CCCCC(=O)NC(c1ccc(Cl)cc1Cl)c1ccc2cccnc2c1O` (stereo not given): the IC50 is > 80 µM (inactive).

Consider `CCCOc1ccccc1C1CC(=O)Nc2cc3c(cc21)OCO3` (stereo not given), for which the IC50 was > 80 µM (inactive).

As to `CCOC(=O)Nc1nc(-c2ccccc2)c(C(=O)c2ccc(Cl)cc2)s1`, the IC50 was > 80 µM (inactive).

As for `O=C1CC(c2cccc(Br)c2)c2cc3c(cc2N1)CCC3` (stereo not given), the IC50 was 30.7 µM (inactive).

As for `COc1cc(NC(=O)N2CCNC2=O)cc(C(=O)Nc2cccc(C(F)(F)F)c2)c1`, the pIC50 was greater than 6.80.

In the case of `CC(C)(C)c1nnc(N/N=C/c2ccccc2O)n(N)c1=O`, the IC50 was 52.8 µM (inactive).

For the molecule `CCC1CCCCN1C(=O)c1cc(COc2ccc3ncccc3c2)on1` (stereo not given), the IC50 was > 80 µM (inactive).

In the case of `COc1ccc2c(c1)/C(=C/c1cnc[nH]1)C(=O)N2`, the negative-log IC50 (pIC50) is 5.32.

Take `CCOC(=O)c1ccc2nc(Nc3nc4ccc(F)cc4s3)sc2c1`: the IC50 is 20.3 µM (inactive).

Regarding `CCCCn1c2c(c(=N)c3c1CCC3)CCC2`, the IC50 was > 80 µM (inactive).

With `COC(=O)c1ccccc1NC(=O)Cn1c(-c2nonc2N)nc2ccccc21`, the IC50 is > 80 µM (inactive).

`COc1cc(C2C(C#N)=C(N)Oc3cc(N(C)C)ccc32)cc2c1OCO2` (stereo not given): the IC50 was > 80 µM (inactive).

Turning to `COc1cc(Nc2ccc(C)cc2)c([N+](=O)[O-])nc1[N+](=O)[O-]`, the IC50 was > 80 µM (inactive).

In the case of `COc1cccc(-c2cc(=O)c3cc(NC(=O)c4ccccc4)ccc3[nH]2)c1`, the IC50 is > 80 µM (inactive).

On to `COc1cc([C@@H]2c3cc4c(cc3[C@@H](OC)[C@H]3COC(=O)[C@H]23)OCO4)cc(OC)c1O`, for which the IC50 was > 80 µM (inactive).

In the case of `O=C1C=CC(O)(c2cc(=O)c3c(O)cc(O)cc3o2)C=C1`, the pIC50 is 5.79.

With `COc1ccc(CCNc2cc(N3CCN(C(=O)c4ccccc4F)CC3)ccc2[N+](=O)[O-])cc1OC`, the IC50 is > 80 µM (inactive).

Take `Cc1cc(C(C)(C)C)cc(C)c1C[n+]1ccc2ccccc2c1`: the IC50 was > 80 µM (inactive).

As for `CCCCN=C[C@]12CCC(O)CC1(O)CCC1[C@@H]2CC[C@]2(C)[C@H](C3C=CC(=O)O3)CCC12O` (stereo not given in full), the pIC50 is 5.60.

On to `Cc1cccc(N2CCN(C(=O)c3ccc(CS(=O)(=O)c4ccccc4C)o3)CC2C)c1` (stereo not given), for which the IC50 is 22.3 µM (inactive).

With `CCCCCCCCn1c2c(c(=N)c3ccccc31)CCC2`, the pIC50 was 5.64.

In the case of `O=C(N[C@@H](Cc1ccccc1)C(=O)CCl)OCc1ccccc1`, the pIC50 is 5.24.

Regarding `COC(=O)c1c(NC(=O)c2ccc([N+](=O)[O-])o2)sc2c1CCN(C(C)C)C2`, the pIC50 is 4.82.

Consider `O=C(Nc1ccn(Cc2ccccc2F)n1)c1ccc(COc2ccc(Br)cc2)cc1`, for which the IC50 is > 80 µM (inactive).

As for `C/C=C(\C)C(=O)N[C@@H](c1ccccc1)[C@@H](O)C(=O)O[C@H]1C[C@@]2(O)[C@@H](OC(=O)c3ccccc3)C3[C@](C)(C(=O)[C@H](OC(C)=O)C(=C1C)C2(C)C)[C@@H](O)C[C@H]1OC[C@@]31OC(C)=O` (stereo not given in full), the IC50 is > 80 µM (inactive).

`CCn1c2ccccc2c2cc(NC(=O)c3cc(OC)c(OC)c(OC)c3)ccc21`: the pIC50 is 4.73.

Regarding `CCC(C)C(=O)N[C@@H](c1ccccc1)[C@@H](O)C(=O)O[C@H]1C[C@@]2(O)[C@@H](OC(=O)c3ccccc3)C3[C@](C)(C(=O)[C@H](OC(C)=O)C(=C1C)C2(C)C)[C@@H](O)C[C@H]1OC[C@@]31OC(C)=O` (stereo not given in full), the IC50 is > 80 µM (inactive).

For `O=C(O)c1ccc(-c2ccc(-c3ccccc3)cc2)s1`, the pIC50 is 5.61.

For the molecule `CCOC(=O)N1CCN(C(=O)C2CCCN(Cc3nc(-c4ccc(Cl)cc4)oc3C)C2)CC1` (stereo not given), the IC50 is 33.9 µM (inactive).

`CCOc1cc(C(=O)N/N=C/C(Br)=C/c2ccccc2)cc(OCC)c1OCC`: the IC50 was 35.6 µM (inactive).

As for `Oc1ccc(Nc2nc3ccccc3nc2Nc2ccc(O)cc2)cc1`, the pIC50 is 5.43.

On to `Cc1ccc(C(=O)O/N=C(\N)c2ccccn2)c(Cl)c1`, for which the pIC50 is 6.07.

The values are drawn from PubChem BioAssay AID489033 (Sanford-Burnham Center for Chemical Genomics, 2010).
